Where a SMILES comes first, the peptide text is derived from it. Bridges are numbered along the chain shown (N, C = ends). [ ]: non-standard residue; d: D form. The star is where a group is joined. hPhe(3,5-F2-4-CF3) = N[C@@H](CCc1cc(F)c(C(F)(F)F)c(F)c1)C(=O)O; hPhe(3-Cl-4-CF3) = N[C@@H](CCc1ccc(C(F)(F)F)c(Cl)c1)C(=O)O; NPrPhe(4-CF3) = CCCN[C@@H](Cc1ccc(C(F)(F)F)cc1)C(=O)O; NMeGly(cPent) = CN[C@H](C(=O)O)C1CCCC1; NMeD = CN[C@@H](CC(=O)O)C(=O)O; NMeL = CN[C@@H](CC(C)C)C(=O)O; NMeNva = CCC[C@H](NC)C(=O)O; αMeS = C[C@](N)(CO)C(=O)O; Morpholide = C1CN(*)CCO1; Ac4c = NC1(C(=O)O)CCC1; NPrGly = CCCNCC(=O)O; Sar = CNCC(=O)O; Allyl = C=CC*
What was measured:
[1] = molecular target: GDP-bound KRAS wild-type protein (Homo sapiens, UniProt P01116); test: Binding to KRAS by surface plasmon resonance (SPR), dissociation constant KD
Method in brief: (§1)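 Recombinant RAS proteins bearing a biotinylated Avi tag and loaded with GDP served as the captured ligand, recaptured fresh every cycle. Binding responses were referenced to an uncoated surface and a buffer-only blank cycle. Dissociation constants were obtained by 1:1 model fitting at 30°C.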

[2] = system: human lung cancer strain NCI-H441; assay type: cell-based
Method in brief: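 Signal came from […] measured per well once the reagent was added. Beforehand, cells were cultured at 37°C and 5% carbon dioxide on a compound series serially diluted in dimethyl sulfoxide.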

[3] = molecular target: GDP-bound NRAS wild-type protein (Homo sapiens, UniProt P01111); test: Binding to NRAS by surface plasmon resonance (SPR), KD and KD ratio to KRAS
Method in brief: as §1

HRAS wild-type protein = HRAS wild-type protein (Homo sapiens, UniProt P01112); test: Binding to HRAS by surface plasmon resonance (SPR), KD and KD ratio to KRAS
Method in brief: as §1

[4] = ratio of KD for GDP-bound NRAS wild-type protein to KD for KRAS
[5] = ratio of KD for HRAS wild-type protein to KD for KRAS
[6] = Single Cycle Kinetics, 1:1 binding model
[7] = ratio of the KD value with respect to GDP-bound NRAS wild-type protein to the KD value with respect to KRAS
[8] = ratio of the KD value with respect to HRAS wild-type protein to the KD value with respect to KRAS

Sequence of GDP-bound NRAS wild-type protein (P01111 whole entry): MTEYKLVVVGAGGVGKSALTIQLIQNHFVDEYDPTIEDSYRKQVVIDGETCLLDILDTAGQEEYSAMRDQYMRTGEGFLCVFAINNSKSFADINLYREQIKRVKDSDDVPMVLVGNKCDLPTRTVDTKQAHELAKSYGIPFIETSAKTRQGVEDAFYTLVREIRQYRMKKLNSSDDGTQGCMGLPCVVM
Sequence of GDP-bound KRAS wild-type protein (P01116 1-188 isoform P01116-2): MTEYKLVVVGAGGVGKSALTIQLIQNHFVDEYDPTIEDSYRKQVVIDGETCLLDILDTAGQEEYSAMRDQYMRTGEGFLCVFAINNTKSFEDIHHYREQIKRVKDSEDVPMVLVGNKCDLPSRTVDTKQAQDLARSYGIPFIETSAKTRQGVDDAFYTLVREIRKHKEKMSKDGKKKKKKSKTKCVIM
Sequence of HRAS wild-type protein (P01112 whole entry): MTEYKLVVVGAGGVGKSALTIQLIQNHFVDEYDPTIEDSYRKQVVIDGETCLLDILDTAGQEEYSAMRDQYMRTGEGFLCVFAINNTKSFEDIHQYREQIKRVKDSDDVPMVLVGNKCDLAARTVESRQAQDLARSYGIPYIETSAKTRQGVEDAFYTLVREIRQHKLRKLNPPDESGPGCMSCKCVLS

Kd ([1]; Single Cycle Kinetics) [nM]	IC50 [2] [nM]	Kd ([1]; 1:1 binding model) [nM]	Kd [1, 6] [nM]	Compound	NRAS /KRAS [3, 4]	HRAS /KRAS (HRAS wild-type protein; [5])	NRAS /KRAS [3, 7]	HRAS /KRAS (HRAS wild-type protein; [8])
0.16	25.2			CCO[C@@H]1C[C@H]2C(=O)NC3(CCC3)C(=O)N(C)[C@@H](C3CCCC3)C(=O)N(C)[C@H](C(=O)N3CCOCC3)CC(=O)N(C)[C@@H](CC(C)C)C(=O)N[C@@H]([C@@H](C)CC)C(=O)N(C)CC(=O)N(C)[C@H]3CCCCCN(C3=O)[C@@H](Cc3ccc(F)c(F)c3)C(=O)N(C)CC(=O)N[C@@H](CCc3cc(F)c(C(F)(F)F)c(F)c3)C(=O)N2C1 [PP0917]	B (a compound having 3 or more and less than 10 is denoted as B)	B (a compound having 3 or more and less than 10 is denoted as B)		
	18.4	0.39		CCO[C@@H]1C[C@H]2C(=O)NC3(CC(C)(C)C3)C(=O)N(C)[C@@H](C3CCCC3)C(=O)N(C)[C@H](C(=O)N(C)C)CC(=O)N(C)[C@@H]([C@@H](C)OC)C(=O)N[C@@H]([C@@H](C)CC)C(=O)N3CCC[C@H]3C(=O)N(C)[C@H]3C/C=C\CCN(C3=O)[C@@H](Cc3ccc(C(F)(F)F)cc3)C(=O)N(C)CC(=O)N[C@@H](CCc3cc(F)c(C(F)(F)F)c(F)c3)C(=O)N2C1 [PP3205]	A (a compound having 10 or more and less than 20 is denoted as A)	A (a compound having 10 or more and less than 20 is denoted as A)		
0.49	134			CCO[C@@H]1C[C@H]2C(=O)NC3(CCC3)C(=O)N(C)[C@@H](C3CCCC3)C(=O)N(C)[C@H](C(=O)N(C)C)CC(=O)N(C)[C@@H](CC)C(=O)N[C@@H]([C@@H](C)CC)C(=O)N(C)CC(=O)N(C)[C@H]3CC(C)=C(C)CN(C3=O)[C@@H](Cc3ccc(C(F)(F)F)cc3)C(=O)N(C)CC(=O)N[C@@H](CCc3cc(F)c(C(F)(F)F)c(F)c3)C(=O)N2C1 [PP1048]	C (A compound having a KD ratio of 0.1 or more and less than 3 is denoted as C)	C (A compound having a KD ratio of 0.1 or more and less than 3 is denoted as C)		
	16.1		0.17	CCCN(C)C(=O)[C@@H]1CC(=O)N(C)[C@@H](C2CCC2)C(=O)N[C@@H]([C@@H](C)CC)C(=O)N(C)CC(=O)N(C)[C@H]2C/C=C\CCN(C2=O)[C@@H](Cc2ccc(C(F)(F)F)cc2)C(=O)N(C)CC(=O)N[C@@H](CCc2cc(F)c(C(F)(F)F)c(F)c2)C(=O)N2C[C@H](OCC)C[C@H]2C(=O)NC2(CCC2)C(=O)N(C)[C@@H](C2CCCC2)C(=O)N1C [PP1998]			A (a compound having 10 or more and less than 20 is denoted as A)	B (a compound having 3 or more and less than 10 is denoted as B)
	38.6	1.3		CCC(CC)[C@H]1C(=O)N(C)[C@H](C(=O)N(C)C)CC(=O)N(C)[C@@H](COC)C(=O)N[C@@H]([C@@H](C)CC)C(=O)N(C)CC(=O)N(C)[C@H]2C/C=C\CCN(C2=O)[C@@H](Cc2ccc(C)cc2)C(=O)N(C)CC(=O)N[C@@H](CCc2ccc(Cl)c(Cl)c2)C(=O)N2CCCCC[C@H]2C(=O)NC2(CC(C)(C)C2)C(=O)N1C [PP2974]	A (a compound having 10 or more and less than 20 is denoted as A)	A (a compound having 10 or more and less than 20 is denoted as A)		
	5.6	0.059		CCO[C@@H]1C[C@H]2C(=O)NC3(CC(C)(C)C3)C(=O)N(C)[C@@H](C3CCCC3)C(=O)N(C)[C@H](C(=O)N(C)C)CC(=O)N(C)[C@@H]([C@@H](C)OC)C(=O)N[C@@H]([C@@H](C)CC)C(=O)N(C)CC(=O)N(C)[C@H]3C/C=C\CCN(C3=O)[C@@H](Cc3ccc(C)cc3)C(=O)N(C)CC(=O)N[C@@H](CCc3ccc(C(F)(F)F)c(OC)c3)C(=O)N2C1 [PP3207]	A (a compound having 10 or more and less than 20 is denoted as A)	A (a compound having 10 or more and less than 20 is denoted as A)		
	41	0.56		CCCO[C@@H]1C[C@H]2C(=O)N(C)C3(CC(C)(C)C3)C(=O)N(C)[C@@H](C(CC)CC)C(=O)N(C)[C@H](C(=O)N(C)C)CC(=O)N(C)[C@@H](COC)C(=O)N[C@@H]([C@@H](C)CC)C(=O)N(C)CC(=O)N(C)[C@H]3C/C=C\CCN(C3=O)[C@@H](Cc3ccc(C)cc3)C(=O)N(C)CC(=O)N[C@@H](CCc3ccc(Cl)c(Cl)c3)C(=O)N2C1 [PP2812]	AA (a compound having 20 or more is denoted as AA)	A (a compound having 10 or more and less than 20 is denoted as A)		
	44.1		0.64	CCO[C@@H]1C[C@H]2C(=O)NC3(CCC3)C(=O)N(C)[C@@H](C3CCCC3)C(=O)N(C)[C@H](C(=O)N3CCOCC3)CC(=O)N(C)[C@@H](Cc3ccccc3)C(=O)N[C@@H]([C@@H](C)CC)C(=O)N(C)CC(=O)N(C)[C@H]3CCCCCN(C3=O)[C@@H](Cc3ccc(C(F)(F)F)cc3)C(=O)N(C)CC(=O)N[C@@H](CCc3cc(F)c(C(F)(F)F)c(F)c3)C(=O)N2C1 [PP0687]			B (a compound having 3 or more and less than 10 is denoted as B)	B (a compound having 3 or more and less than 10 is denoted as B)
	52.8	0.6		CCC[C@H]1C(=O)N[C@@H]([C@@H](C)CC)C(=O)N(C)CC(=O)N(C)[C@H]2C/C=C\CCN(C2=O)[C@@H](Cc2ccc(C)cc2)C(=O)N(C)CC(=O)N[C@@H](CCc2cc(F)c(C(F)(F)F)c(F)c2)C(=O)N2C[C@H](OCC)C[C@H]2C(=O)NC2(CC(C)(C)C2)C(=O)N(C)[C@@H](CC2CC2)C(=O)N(C)[C@H](C(=O)N(C)C)CC(=O)N1C [PP2797]	A (a compound having 10 or more and less than 20 is denoted as A)	A (a compound having 10 or more and less than 20 is denoted as A)		
	18.7		0.22	CCCOC[C@H]1C(=O)N[C@@H]([C@@H](C)CC)C(=O)N(C)CC(=O)N(C)[C@H]2C/C=C\CCN(C2=O)[C@@H](Cc2ccc(C)cc2)C(=O)N(C)CC(=O)N[C@@H](CCc2cc(F)c(C(F)(F)F)c(F)c2)C(=O)N2C[C@H](CCC)C[C@H]2C(=O)NC2(CCC2)C(=O)N(C)[C@@H](C2CCCC2)C(=O)N(C)[C@H](C(=O)N(C)C)CC(=O)N1C [PP2232]			A (a compound having 10 or more and less than 20 is denoted as A)	A (a compound having 10 or more and less than 20 is denoted as A)
	33.9	1.7		CCC[C@H]1C(=O)N[C@H]([C@@H](C)CC)C(=O)N(C)CC(=O)N(C)[C@H]2C/C=C\CCN(C2=O)[C@@H](Cc2ccc(C)cc2)C(=O)N(C)CC(=O)N[C@@H](CCc2cc(F)c(C(F)F)c(F)c2)C(=O)N2C[C@H](OCC)C[C@H]2C(=O)NC2(CC(C)(C)C2)C(=O)N(C)[C@@H](C(CC)CC)C(=O)N(C)[C@H](C(=O)N(C)C)CC(=O)N1C (stereo in doubt) [PP2783]	A (a compound having 10 or more and less than 20 is denoted as A)	A (a compound having 10 or more and less than 20 is denoted as A)		
0.98	83			C=CCOC[C@]1(C)NC(=O)[C@@H]2CCCN2C(=O)[C@H](CCc2cc(F)c(C(F)(F)F)c(F)c2)NC(=O)CN(C)C(=O)[C@H](Cc2ccc(C(F)(F)F)cc2)N(CCC)C(=O)CN(C)C(=O)CN(C)C(=O)[C@H]([C@@H](C)CC)NC(=O)[C@H](CC(C)C)N(C)C(=O)C[C@@H](C(=O)N2CCOCC2)N(C)C(=O)[C@H](C2CCCC2)N(C)C1=O [PP0763] ([NMeL]I[Sar][Sar][NPrPhe(4-CF3)][Sar][hPhe(3,5-F2-4-CF3)]P[αMeS](Allyl)[NMeGly(cPent)][NMeD]-Morpholide; lactam N-11)	B (a compound having 3 or more and less than 10 is denoted as B)	B (a compound having 3 or more and less than 10 is denoted as B)		
	9.3		0.92	CCC[C@H]1C(=O)N[C@@H]([C@@H](C)CC)C(=O)N(C)CC(=O)N(CCC)CC(=O)N(CCC)[C@@H](Cc2ccc(C(F)(F)F)cc2)C(=O)N(C)CC(=O)N[C@@H](CCc2ccc(C(F)(F)F)c(Cl)c2)C(=O)N2CCC[C@H]2C(=O)NC2(CCC2)C(=O)N(C)[C@@H](C2CCCC2)C(=O)N(C)[C@H](C(=O)N2CCOCC2)CC(=O)N1C [PP1949] ([NMeNva]I[Sar][NPrGly][NPrPhe(4-CF3)][Sar][hPhe(3-Cl-4-CF3)]P[Ac4c][NMeGly(cPent)][NMeD]-Morpholide; lactam N-11)			C (A compound having a KD ratio of 0.1 or more and less than 3 is denoted as C)	C (A compound having a KD ratio of 0.1 or more and less than 3 is denoted as C)
0.56	75.7			CC[C@H](C)[C@@H]1NC(=O)[C@H](CC(C)C)N(C)C(=O)C[C@@H](C(=O)N2CCOCC2)N(C)C(=O)[C@H](C2CCCC2)N(C)C(=O)C2(CCC2)NC(=O)[C@@H]2[C@H]3C[C@H]3CN2C(=O)[C@H](CCc2cc(F)c(C(F)(F)F)c(F)c2)NC(=O)CN(C)C(=O)[C@H](Cc2ccc(C(F)(F)F)cc2)N2CCCCC[C@@H](C2=O)N(C)C(=O)CN(C)C1=O [PP0819]	A (a compound having 10 or more and less than 20 is denoted as A)	B (a compound having 3 or more and less than 10 is denoted as B)		
	28.9		0.17	CCO[C@@H]1C[C@H]2C(=O)NC3(CCC3)C(=O)N(C)[C@@H](C3CCCC3)C(=O)N(C)[C@H](C(=O)N(C)CC)CC(=O)N(C)[C@H]3CCCCCc4ccc(cc4)C[C@@H](C(=O)N(C)CC(=O)N[C@@H](CCc4cc(F)c(C(F)(F)F)c(F)c4)C(=O)N2C1)N1CC/C=C\C[C@@H](C1=O)N(C)C(=O)CN(C)C(=O)[C@H]([C@@H](C)CC)NC3=O [PP2117]			A (a compound having 10 or more and less than 20 is denoted as A)	A (a compound having 10 or more and less than 20 is denoted as A)
